# Source: publication PMC11952641, “A Novel D-peptide modulates DCLK1 Gelsolin interactions, reducing PDAC tumor growth” (Research Square, 2025)
# Non-standard residues stand in square brackets, D forms with d. Residues, ends and D or L forms follow the SMILES beside them.
# B1: human DCLK1 isoform 4 (β-short) (natural protein, UniProt O15075-4 1-433, looked up)
# chain: MLELIEVNGTPGSQLSTPRSGKSPSPSPTSPGSLRKQRSSQHGGSSTSLASTKVCSSMDENDGPGEEVSEEGFQIPATITERYKVGRTIGDGNFAVVKECVERSTAREYALKIIKKSKCRGKEHMIQNEVSILRRVKHPNIVLLIEEMDVPTELYLVMELVKGGDLFDAITSTNKYTERDASGMLYNLASAIKYLHSLNIVHRDIKPENLLVYEHQDGSKSLKLGDFGLATIVDGPLYTVCGTPTYVAPEIIAETGYGLKVDIWAAGVITYILLCGFPPFRGSGDDQEVLFDQILMGQVDFPSPYWDNVSDSAKELITMMLLVDVDQRFSAVQVLEHPWVNDDGLPENEHQLSVAGKIKKHFNTGPKPNSTAAGVSVIATTALDKERQVFRRRRNQDVRSRYKAQPAPPELNSESEDYSPSSSETVRSPNSPF
# modifications: biotin (NHS-LC-biotin) in the library screen only
# notes: human DCLK1 isoform 4 (β-short, NP_001182345); also called Doublecortin-like kinase 1 isoform 4; beta-short; source: E. coli BL21(DE3) pLPP with the pET19-DCLK1 isoform 4 plasmid, purified
# Assays:
# [1] = target: T1, DCLK1 isoform 4 (human His-tagged DCLK1 C-terminal recombinant protein) (Homo sapiens, UniProt O15075); assay: BLI evaluation of D-peptide binding to DCLK1 NKEBD; settings: DCLK1 isoform 4 immobilized on biosensor, PBS/0.05%Tween20/1%DMSO, from 30 μM in a 1:3 series
# T1 sequence (O15075 687-740 limits assumed): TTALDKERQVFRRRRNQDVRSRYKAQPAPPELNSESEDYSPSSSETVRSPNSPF
# Method: (§1) Purification of human DCLK1 isoform 4 was performed at the University of Oklahoma Protein Production and Characterization Core Facility (Norman, OK) using an E. coli strain BL21(DE3) pLPP containing the pET19-DCLK1 isoform 4 plasmid. For Bio-layer Interferometry (BLI) experiments, a C-terminal DCLK1 isoform 2/4 His-tagged protein was used (NovoPro, Shanghai, China). All His-tagged proteins were dialyzed using PBS/glycerol to remove imidazole.
# Human His-tagged DCLK1 C-terminal recombinant protein from NovoPro was used. Binding to the sensor was carried out in PBS/0.05%Tween20/1%DMSO. Response is measured as a nm shift in the interference pattern and is proportional to the number of molecules bound to the biosensor’s surface. Initially, all peptides were tested at 5 and 30 μM. The top binders were tested again with eight different concentrations, starting at 30 μM and diluted in a 1:3 series to determine the dissociation constant (KD).
# [2] = test system: Capan-1 pancreatic cancer cells; assay: Colony formation assay, Capan-1; format: cell-based; settings: Fig. 2B, blinded study
# [3] = test system: DCLK1 isoform 4-pGSN; assay: ELISA: effect of peptides on DCLK1-Gelsolin PPI; format: binding, human; settings: peptide 20 mg/well (so in the source), pGSN 2 μg/ml, Fig. 3H
# Method: as §1
# (§2) Polystyrene microtitre Immulon 2HB plate was coated with freshly prepared (400 ng/50 ml) DCLK1 isoform 4 ([…]) in 0.1 M NaHCO3, pH 8.6, overnight at 4C. After blocking with 1% gelatin in TTBS at RT, different concentrations of gelsolin or FGF19 were added (2 mg/50ul/well, 1 mg/well, 0.5 mg/well, and 0.25 mg/well at […], proteins diluted in TTBS), and incubated at RT. To study the competitive ability of peptides, we used 20 mg/well of either D-peptide 1, D-peptide 3, D-peptide 5, or the C-terminal peptide antigen for the mAb CBT-15. After incubation at RT, plates were washed with TTBS, and bound gelsolin or FGF19 was detected. […] Detection was by alkaline phosphatase-conjugated goat anti-mouse IgG (ab97020; Abcam, Waltham, MA) followed by 1-STEP NBT/BCIP substrate (#34042; ThermoFisher Scientific, Waltham, MA) and quantified at 450 nm on a microplate reader.
# [4] = test system: DCLK1 isoform 4 / CBT-15; assay: Competition assay: CBT-15 binding to DCLK1 isoform 4; parameters: species or system human; settings: Fig. 1D, mean ± SEM, *p < 0.01
# [5] = test system: AsPC-1 xenografts; assay: AsPC-1 xenograft tumor growth in athymic nude mice; format: in vivo, athymic nude (Foxn1nu/Foxn1nu) mice; settings: 10 mg/kg subcutaneously every three days; day 36
# Method: Athymic nude (Foxn1^nu/Foxn1^nu) mice were purchased from the Jackson Laboratory (Bar Harbor, Maine) and housed in pathogen-free conditions. AsPC-1 cells (1 × 10^7) were injected subcutaneously into the flanks of 4- to 6-week-old mice (n=3/group). Tumors were measured using a caliper and the volume was calculated as (length × width^2) × 0.5. Once tumors achieved an average size of ~100 mm^3, mice were injected subcutaneously with selected D-peptides at a dose of 10 mg/kg. Treatments were continued every three days until day 36.
# [6] = test system: DCLK1 isoform 1; assay: Cross-reactivity to DCLK1 isoform 1; format: binding, human
# [7] = test system: AsPC-1 pancreatic cancer cells; assay: Colony formation assay, AsPC-1; format: cell-based; settings: Fig. 2A, blinded study
# [8] = test system: DCLK1 isoform 4; assay: D-peptide library screen for binding to DCLK1 isoform 4, excluding isoform 1 binders; parameters: species or system human; settings: bead library screen, biotin-labeled DCLK1 isoform 4
# Method: An aliquot from each sub-library, containing approximately 1000 beads, was added to a well of a 96-well polystyrene multi-well plate. From 1.5 to 2 ml of Superblock (Pierce Chemical Company, Rockford, IL.) reagent, 0.1% gelatin, or 1%(w/v) bovine serum albumin (BSA) in phosphate-buffered saline (PBS), pH 7.4, was added to each well, and the plates were incubated for one to two hours at room temperature (RT), with periodic or continuous mixing by gentle rocking. Purified DCLK1 isoform 4 protein was labeled with biotin using the biotinylating reagent NHS-LC-biotin (Pierce Chemical Company) according to the supplier’s instructions. Biotin-labeled protein was detected using AP-conjugated to neutravidin (Pierce Chemical Company) incubated with the beads for 30 minutes, after which the beads were washed three times with a Tris-buffered saline solution (pH 7.5), with the second wash being left in contact with the beads for 30 minutes. One-step NBT/BCIP (nitro-blue tetrazolium chloride/5-bromo-4-chloro-3’-indolyphosphate p-toluidine salt) (Pierce Chemical Co.) was then added and the beads observed under a low-power microscope until some of the beads had turned a dark purple color. The beads were washed with PBS twice, followed by 1% acetic acid and a final wash in water. Dark purple-black beads were removed using a small-bore pipette and subjected to amino acid sequence analysis. […]
# [9] = test system: DCLK1 isoform 4; assay: ELISA: FGF19 binding to DCLK1 isoform 4; parameters: species or system human; settings: RT, 450 nm, Fig. 3H
# Method: as §1, §2
# [10] = target: DCLK1 isoform 4; assay: SPR binding to DCLK1 isoform 4; parameters: species or system human; settings: DCLK1 isoform 4 binding to Gelsolin, Fig. 3F
# Method: as §1
# [11] = test system: DCLK1 isoform 4; assay: ELISA: pGSN binding to DCLK1 isoform 4; parameters: species or system human; settings: 1% gelatin blocking, RT, 450 nm, Fig. S2
# Method: as §1, §2
# [12] = target: T2, plasma gelsolin (UniProt P06396 28-782); assay: SPR; who was immobilised and the conditions not given; settings: both partners purified
# T2 construct: plasma gelsolin (pGSN), the extracellular form of gelsolin; The source is told for the ELISA only; also called pGSN; source: bought: Abcam (ab233671)
# T2 sequence (P06396 28-782): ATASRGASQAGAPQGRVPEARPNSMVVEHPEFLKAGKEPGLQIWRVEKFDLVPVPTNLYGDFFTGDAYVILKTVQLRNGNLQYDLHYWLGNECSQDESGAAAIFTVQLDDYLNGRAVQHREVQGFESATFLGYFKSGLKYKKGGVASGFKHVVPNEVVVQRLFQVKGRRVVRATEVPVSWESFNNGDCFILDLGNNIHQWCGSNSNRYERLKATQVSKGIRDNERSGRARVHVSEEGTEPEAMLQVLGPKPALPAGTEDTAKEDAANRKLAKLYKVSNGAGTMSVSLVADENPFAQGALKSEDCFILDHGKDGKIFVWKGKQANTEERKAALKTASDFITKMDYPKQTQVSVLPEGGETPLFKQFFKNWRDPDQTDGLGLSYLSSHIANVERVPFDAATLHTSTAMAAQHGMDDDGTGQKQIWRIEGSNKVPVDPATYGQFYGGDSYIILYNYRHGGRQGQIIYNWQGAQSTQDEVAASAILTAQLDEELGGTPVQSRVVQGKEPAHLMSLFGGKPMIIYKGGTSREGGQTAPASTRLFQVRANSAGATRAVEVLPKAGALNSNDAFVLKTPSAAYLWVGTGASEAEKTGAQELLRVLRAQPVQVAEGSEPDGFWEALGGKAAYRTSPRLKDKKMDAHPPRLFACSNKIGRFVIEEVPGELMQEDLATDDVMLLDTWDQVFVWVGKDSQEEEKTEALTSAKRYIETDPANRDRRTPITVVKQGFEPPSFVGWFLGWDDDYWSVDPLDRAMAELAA
molecule,measurement,setting,value
NCC(=O)N[C@H](Cc1c[nH]c2ccccc12)C(=O)N[C@H](Cc1ccc(O)cc1)C(=O)NCC(=O)N[C@H](Cc1c[nH]c2ccccc12)C(=O)NCC(=O)N[C@H](CC(=O)O)C(=O)N[C@H](CC(=O)O)C(=O)O [D-peptide 1] (H-G[dW][dY]G[dW]G[dD][dD]-OH),Kd,[1],396 nM
same,colony formation,[2],significantly reduced colony formation at low micromolar concentrations
same,effect on pGSN binding to DCLK1 isoform 4,[3],did not block the PPI interaction
same,improvement of pGSN binding to DCLK1,[3],seemed to improve pGSN binding to DCLK1
same,inhibition of CBT-15 binding to DCLK1 isoform 4,[4],None of these D-peptides significantly inhibited CBT-15 binding
same,necrosis or apoptosis in tumors,[5],without inducing necrosis or apoptosis
same,cross-reactivity to isoform 1,[6],minimal cross-reactivity to isoform 1
same,colony formation,[7],significantly reduced colony formation at low micromolar concentrations
same,specific binding to isoform 4,[8],binds specifically to DCLK1 isoform 4
FGF19: candidate DCLK1 interacting protein known to be extracellularly localized (969-FG-025; Bio-Techne),binding to DCLK1 isoform 4,[9],bound to DCLK1 isoform 4 similarly to pGSN
Gelsolin,Kd,[10],~100 nM
same,binding to DCLK1 isoform 4 across the gradient,[11],"consistent, linear binding"
B1,Kd,[12],~100 nM
